In US20250034586A1, “METHOD FOR EDITING BANANA GENES” (Tropic Biosciences UK Limited, priority 2021, published 2025):

Legend:
[1] = test system: Banana embryogenic cell suspensions (ECS); test: CSF kill curves in banana ECS (number of embryos after short CSF treatment); format: cell-based; details: for Number of banana embryos developed (Avg): 3 months after treatment
Experimental: Banana embryogenic cell suspensions (ECS) were pelleted in a falcon tube and mixed with CS (cell suspension) medium to a final cell density of 1-3%. An equal volume of the mixture was split into 6 flasks and the relevant amount of CSF was added to the final concentrations of 0, 10, 20, 50, 100 and 500 μg/L (1st kill curve) or 0, 0.5, 5, 50 and 100 mg/L (2nd kill curve). The ECS-CSF mixtures were placed/inoculated in 6 well plates (5 mL per well) and incubated at 65 rpm in the dark for 3, 5, 10, 15 days at 25° C.
At each time point, the ECS were collected in a cell strainer and washed with CS (cell suspension) medium to remove all the CSF. The cells were collected from the strainer and inoculated into embryo developing media (EDM) plates and developed for 2-3 months (until fully developed embryos were observed). The cells/embryos were subcultured every month. Each treatment was performed in triplicate and treated independently.
The number of embryos was assessed 2-3 months after CSF treatment. The embryos were counted under a stereo microscope using a 50-square grid to help the counting. For plates with too many embryos, only 3 squares from the 50 were counted and then the number of embryos was normalised for all of the plate. For the other plates all embryos were counted. Mean values±standard deviation (Stdev) were obtained from 3 technical replicates.

ACO1, Ma01_g11540 = test: Trait co-editing in selected embryos (PBE #3); format: cell-based, banana
Experimental: We transformed ECS as described previously in Example 6, using the new co-editing plasmids detailed in Table 11 above. Embryos were regenerated as detailed previously, either on media without selection, with 25 mg/L G418, 25 μg/L CSF or 50 μg/L CSF. Initial genotyping of all plasmids tested:
• All with CsVMV-rAPOBEC1 CBE (rAPOBEC+nCas9 (D10A) PBE from Zong et al. 2017*) and nosP-NptII • pMol_0925 (sgGFP-pNOS::Kan::tOCS-pCsVMV::nCas9PBE1::tg7-Dummy-pTaU6::sg1GFP_58-pTaU6::sg2GFP_59) • pMol_0934 (sgGFP, sgALS1-pNOS::Kan::tOCS-pCsVMV::nCas9PBE1::tg7-taU6::MaALS1sg2_2021-pTaU6::sg1GFP_58-pTaU6::sg2GFP_59) • pMol_0935 (sgGFP, sgALS2-pNOS::Kan::tOCS-pCsVMV::nCas9PBE1::tg7-taU6::MaALS2sg2_2023-pTaU6::sg1GFP_58-pTaU6::sg2GFP_59) • pMol_0926 (sgPPO2, sgALS1-pNOS::Kan::tOCS-pCsVMV::nCas9PBE1::tg7-taU6::MaALS1sg2_2021-pTaU6::sg1PPO2_2961-pTaU6::sg2PPO2_2962-pTaU6::sg3PPO2_2963) • pMol_0927 (sgPPO2, sgALS1-pNOS::Kan::tOCS-pCsVMV::nCas9PBE1::tg7-taU6::MaALS1sg2_2021-pTaU6::sg3PPO2_2963-pTaU6::sg4PPO2_2964) • pMol_0928 (sgACO1, sgALS1-pNOS::Kan::tOCS-pCsVMV::nCas9PBE1::tg7-taU6::MaALS1sg2_2021-pTaU6::sg1ACO1_2965-pTaU6::sg2ACO1_2966-pTaU6::sg3ACO1_2967) • pMol_0929 (sgPPO2, sgALS2-pNOS::Kan::tOCS-pCsVMV::nCas9PBE1::tg7-taU6::MaALS2sg2_2023-pTaU6::sg1PPO2_2961-pTaU6::sg2PPO2_2962-pTaU6::sg3PPO2_2963) • pMol_0930 (sgPPO2, sgALS2-pNOS::Kan::tOCS-pCsVMV::nCas9PBE1::tg7-taU6::MaALS2sg2_2023-pTaU6::sg3PPO2_2963-pTaU6::sg4PPO2_2964) • pMol_0931 (sgACO1, sgALS2-pNOS::Kan::tOCS-pCsVMV::nCas9PBE1::tg7-taU6::MaALS2sg2_2023-pTaU6::sg1ACO1_2965-pTaU6::sg2ACO1_2966-pTaU6::sg3ACO1_2967) ECS were left to ‘recover’ after transformation for 1 week in CS+cefo 300 mg/L. We regenerated embryos in 4 different conditions: • 1. No selection • 2. Stable G418 selection (in EDM only 2-3 months) from PBE #3 only (PBE #1/2 plasmids only have mCherry, not NptII) • 3. 25 μg/L chlorsulfuron (in EDM only 2-3 months) • 4. 50 μg/L chlorsulfuron (in EDM only 2-3 months)
gDNA from embryos and plantlets was extracted and qPCR was used to test for the presence of integrated tDNA in the plant genome. Three independent qPCRs were run on each sample with different sets of primers (listed below) spanning the tDNA, ranging from the left to right border. An additional qPCR was run on an endogenous banana gene (actin) for normalisation of Ct values. All qPCRs were run on the LightCycler® 96 System (Roche) using PowerUp™ SYBR® Green Master Mix (Thermo Fisher Scientific™).
For edit validation, amplicons for each target gene (als1, als2, ppo2, aco1) were made using Q5® High-Fidelity 2× Master Mix (New England Biolabs, NEB) using reaction settings listed below. PCR products were purified using Monarch® PCR & DNA Cleanup Kit (NEB) according to manufacturer's specifications. The amplicons were after validated by Sanger sequencing.

SMILES: COc1nc(C)nc(NC(=O)NS(=O)(=O)c2ccccc2Cl)n1 [CSF, chlorsulfuron]
- Embryo number, 1st CSF kill curve ([1]; 0, 10, 20, 50, 200, 500 μg/L CSF for 3, 5, 10 and 15 days): major differences in embryo number were not observed
- Fold-change non-CSF/+CSF (number of embryos) ([1]; 0.5 mg/L CSF for 5dd): 2.9
- Number of banana embryos developed (Avg) ([1]; 0.5 mg/L CSF for 5dd, 3 technical replicates): 1109
- Fold-change non-CSF/+CSF (number of embryos) ([1]; 0.5 mg/L CSF for 10dd): 32.6
- Number of banana embryos developed (Avg) ([1]; 0.5 mg/L CSF for 10dd): 127
- Fold-change non-CSF/+CSF (number of embryos) ([1]; 0.5 mg/L CSF for 15dd): 22.3
- Number of banana embryos developed (Avg) ([1]; 0.5 mg/L CSF for 15dd): 217
- Fold-change non-CSF/+CSF (number of embryos) ([1]; 5 mg/L CSF for 5dd): 24.9
- Number of banana embryos developed (Avg) ([1]; 5 mg/L CSF for 5dd): 127
- Fold-change non-CSF/+CSF (number of embryos) ([1]; 5 mg/L CSF for 10dd): 229.9
- Number of banana embryos developed (Avg) ([1]; 5 mg/L CSF for 10dd): 18
- Fold-change non-CSF/+CSF (number of embryos) ([1]; 5 mg/L CSF for 15dd): 167.0
- Number of banana embryos developed (Avg) ([1]; 5 mg/L CSF for 15dd): 29
- Decrease in the number of embryos ([1]; 5 mg/L CSF for 10 days): higher than 200 ×
- Fold-change non-CSF/+CSF (number of embryos) ([1]; 50 mg/L CSF for 5dd): 54.5
- Number of banana embryos developed (Avg) ([1]; 50 mg/L CSF for 5dd): 58
- Fold-change non-CSF/+CSF (number of embryos) ([1]; 50 mg/L CSF for 10dd): 459.8
- Number of banana embryos developed (Avg) ([1]; 50 mg/L CSF for 10dd): 9
- Fold-change non-CSF/+CSF (number of embryos) ([1]; 50 mg/L CSF for 15dd): 1210.5
- Number of banana embryos developed (Avg) ([1]; 50 mg/L CSF for 15dd): 4
- Fold-change non-CSF/+CSF (number of embryos) ([1]; 100 mg/L CSF for 5dd): 55.5
- Number of banana embryos developed (Avg) ([1]; 100 mg/L CSF for 5dd): 57
- Fold-change non-CSF/+CSF (number of embryos) ([1]; 100 mg/L CSF for 10dd): 517.3
- Number of banana embryos developed (Avg) ([1]; 100 mg/L CSF for 10dd): 8
- Fold-change non-CSF/+CSF (number of embryos) ([1]; 100 mg/L CSF for 15dd): 345.9
- Number of banana embryos developed (Avg) ([1]; 100 mg/L CSF for 15dd): 14
- CSF concentrations at which colour changes in banana ECS were observed ([1]; 2nd kill curve, after treatment): higher than 5 mg/L
- Minimal lethal dose (concentration reducing number of embryos 100×; measure of success met) ([1]; 10 days of treatment): 5 mg/L
- Killing of banana cells ([1]; five days of treatment, 2nd kill curve): inefficient for killing banana cells
- Percentage edited ACO1 embryos (ACO1, Ma01_g11540; 25CSF selection): 75
- ACO1 edited embryos total (ACO1, Ma01_g11540; 25CSF selection, 8 embryos tested): 6
- Percentage edited ACO1 embryos (ACO1, Ma01_g11540; 50CSF selection): 100
- ACO1 edited embryos total (ACO1, Ma01_g11540; 50CSF selection, 7 embryos tested): 7
